This is an account of results in ChEMBL document CHEMBL3603739, “Novel diazabicycloalkane delta opioid agonists” (Bioorg Med Chem, 2015).

For data set [1], the species on record is Mus musculus. The experiment in a line: Selectivity index, ratio of Ki for mu opioid receptor in mouse brain membranes to Ki for delta opioid receptor in mouse brain membranes. Format: cell membranes.
Data set [2] has as its system NG108-15. The experiment in a line: Intrinsic agonist activity at delta opioid receptor in mouse/rat NG108-15 cells assessed as increase in ERK1/2 phosphorylation At 1 nM pre-treated with 500 nM opioid antagonist naloxone for 5 mins followed by compound exposure for 20 mins by Western blot method. Format: cell-based. (In general: In western blotting, separated proteins are transferred to a membrane and probed.)

For a further data set, the target named is Mu-type opioid receptor (Mus musculus, UniProt P42866). The experiment in a line: Displacement of [3H]DAMGO from mu opioid receptor in mouse brain membranes by liquid scintillation counting method. Format: cell membranes, Membrane. (Loss of bound radioactivity is the signal in a displacement assay; it reports binding, not function.)
Sequence of Mu-type opioid receptor (P42866 whole entry): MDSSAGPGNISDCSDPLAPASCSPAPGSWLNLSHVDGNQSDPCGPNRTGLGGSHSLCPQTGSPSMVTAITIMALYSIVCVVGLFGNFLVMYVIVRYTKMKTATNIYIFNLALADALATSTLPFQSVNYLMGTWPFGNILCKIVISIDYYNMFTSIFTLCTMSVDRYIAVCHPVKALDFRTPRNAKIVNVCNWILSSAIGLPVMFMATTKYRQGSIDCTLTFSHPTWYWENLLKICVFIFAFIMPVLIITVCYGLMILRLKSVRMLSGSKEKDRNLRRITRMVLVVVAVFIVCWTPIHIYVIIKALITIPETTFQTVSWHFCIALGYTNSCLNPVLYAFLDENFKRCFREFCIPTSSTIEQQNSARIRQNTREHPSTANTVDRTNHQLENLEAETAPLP
The species named for data set [3] is Mus musculus. Description: Selectivity index, ratio of Ki for kappa opioid receptor in mouse brain membranes to Ki for delta opioid receptor in mouse brain membranes. Format: cell membranes.
For data set [4], the system named is NG108-15. The experiment in a line: Intrinsic agonist activity at delta opioid receptor in mouse/rat NG108-15 cells assessed as increase in ERK1/2 phosphorylation at 0.1 to 5 uM incubated for 20 mins by Western blot method. Format: cell-based.
For data set [5], the target named is Delta-type opioid receptor (Mus musculus, UniProt P32300). The experiment in a line: Displacement of [3H]DPDPE from delta opioid receptor in mouse brain membranes by liquid scintillation counting method. Format: cell membranes, Membrane.
Sequence of Delta-type opioid receptor (P32300 whole entry): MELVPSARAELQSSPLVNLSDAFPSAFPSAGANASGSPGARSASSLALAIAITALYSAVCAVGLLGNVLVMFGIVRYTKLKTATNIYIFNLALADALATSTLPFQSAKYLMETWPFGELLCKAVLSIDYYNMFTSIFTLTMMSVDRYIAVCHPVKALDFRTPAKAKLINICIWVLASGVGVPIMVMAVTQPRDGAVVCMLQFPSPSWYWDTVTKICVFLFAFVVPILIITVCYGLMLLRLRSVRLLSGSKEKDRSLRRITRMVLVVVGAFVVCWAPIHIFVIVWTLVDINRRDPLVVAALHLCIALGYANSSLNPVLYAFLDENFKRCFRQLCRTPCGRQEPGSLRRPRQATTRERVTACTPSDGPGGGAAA
In data set [6] the target is Kappa-type opioid receptor (Mus musculus, UniProt P33534). Description: Displacement of [3H]U-69,593 from kappa opioid receptor in mouse brain membranes by liquid scintillation counting method. Format: cell membranes, Membrane.
Sequence of Kappa-type opioid receptor (P33534 whole entry): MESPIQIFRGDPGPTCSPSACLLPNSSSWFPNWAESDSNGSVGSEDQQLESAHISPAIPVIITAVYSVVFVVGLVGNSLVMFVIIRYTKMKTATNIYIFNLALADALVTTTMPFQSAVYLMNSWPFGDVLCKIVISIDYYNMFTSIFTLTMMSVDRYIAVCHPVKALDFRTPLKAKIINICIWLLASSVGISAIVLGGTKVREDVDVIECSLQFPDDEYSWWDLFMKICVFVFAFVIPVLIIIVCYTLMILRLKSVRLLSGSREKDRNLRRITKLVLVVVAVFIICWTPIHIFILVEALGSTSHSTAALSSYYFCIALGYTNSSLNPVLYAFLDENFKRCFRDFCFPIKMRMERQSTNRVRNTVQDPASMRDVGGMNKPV
Data set [7] concerns the target Delta-type opioid receptor (Mus musculus) (UniProt P32300). Description: Agonist activity at delta opioid receptor in mouse vas deferens assessed as reduction in electric field stimulation-induced twitch contractions amplitude in presence of 1 nM natrindole.
Data set [8] shares this target. Description: Agonist activity at delta opioid receptor in mouse vas deferens assessed as reduction in electric field stimulation-induced twitch contractions amplitude relative to control.
Data set [9] concerns NG108-15. Description: Intrinsic agonist activity at delta opioid receptor in mouse/rat NG108-15 cells assessed as increase in ERK1/2 phosphorylation at 50 nM pre-treated with 500 nM opioid antagonist naloxone for 5 mins followed by compound exposure for 20 mins by Western blot method. Format: cell-based.
In data set [10] the test system is NG108-15. The experiment in a line: Intrinsic agonist activity at delta opioid receptor in mouse/rat NG108-15 cells assessed as increase in ERK1/2 phosphorylation at 1 to 50 uM incubated for 20 mins by Western blot method. Format: cell-based.
Data set [11] has as its target Delta-type opioid receptor (Mus musculus) (UniProt P32300). Description: Agonist activity at delta opioid receptor in mouse vas deferens assessed as reduction in electric field stimulation-induced twitch contractions amplitude.
Data set [12] relates to NG108-15. Description: Intrinsic agonist activity at delta opioid receptor in mouse/rat NG108-15 cells assessed as increase in ERK1/2 phosphorylation At 5 nM pre-treated with 500 nM opioid antagonist naloxone for 5 mins followed by compound exposure for 20 mins by Western blot method. Format: cell-based.
In data set [13] the test system is NG108-15. The experiment in a line: Intrinsic agonist activity at delta opioid receptor in mouse/rat NG108-15 cells assessed as increase in ERK1/2 phosphorylation at 10 nM pre-treated with 500 nM opioid antagonist naloxone for 5 mins followed by compound exposure for 20 mins by Western blot method. Format: cell-based.
For data set [14], the system named is NG108-15. The experiment in a line: Intrinsic agonist activity at delta opioid receptor in mouse/rat NG108-15 cells assessed as increase in ERK1/2 phosphorylation by Western blot method. Format: cell-based. The note with it: TDE = time-dependent effect.
Data set [15] has as its system NG108-15. The experiment in a line: Toxicity in mouse/rat NG108-15 cells. Format: cell-based.
For data set [16], the system named is NG108-15. Description: Intrinsic agonist activity at delta opioid receptor in mouse/rat NG108-15 cells assessed as increase in ERK1/2 phosphorylation at 0.1 to 100 uM iincubated for 20 mins by Western blot method. Format: cell-based.

SMILES strings stand for the structures. Activity calls are given as the source filed them. The rule behind the calls is not given here.

Sequence of Delta-type opioid receptor (Mus musculus) (P32300 whole entry): as the sequence (P32300 whole entry) above

By Ki is commonly meant a measure of affinity in units of concentration, obtained from inhibition or displacement. A low value points to tighter binding. Turning to `C=CCN1C2CCC1CN(C(c1ccc(C(=O)N(CC)CC)cc1)c1cccc(OC)c1)CC2` (mixture of isomers), the Ratio Ki is 99.5 in the data set listed under Mus musculus [1] and 1330 in the data set filed under Mus musculus [3]. Further, the result with NG108-15 [2] and in the data set with NG108-15 [4] was Active. In addition, the Ki at Mu-type opioid receptor was 183 nM; in data set [5], 1.84 nM; in [6], 2450 nM.

For `C=CCN1C2CCCC1CN(C(c1ccc(C(=O)N(CC)CC)cc1)c1cccc(OC)c1)CC2` (mixture of isomers), the figures for the Ratio Ki in the data set filed under Mus musculus [1] and in the data set listed under Mus musculus [3] were 104 and 467, respectively. Further, the outcome in data set [7] was inactive. Also, the Imax in [8] came to 90%. In addition, the figures for the Ki (on Mu-type opioid receptor; in [5]; in [6]) were 950 nM, 9.1 nM and 4250 nM, respectively. Also, the outcome (in the data set on NG108-15 [9]; with NG108-15 [10]; in [11]) was Active.

As to `C=CCN1CC2CC(C1)N2C(c1ccc(C(=O)N(CC)CC)cc1)c1cccc(OC)c1` (racemic), the Ratio Ki came to 653 in the data set listed under Mus musculus [1] and 2270 in the data set listed under Mus musculus [3]. In addition, the result in [7] was inactive. The Imax in data set [8] was 90%. Besides, the figures for the Ki (at Mu-type opioid receptor; in data set [5]; in data set [6]) were 1150 nM, 1.76 nM and 4000 nM, respectively. The result (with NG108-15 [10]; in data set [11]) was Active.

Take `C=CCN1CC2CCC(C1)N2C(c1ccc(C(=O)N(CC)CC)cc1)c1cccc(OC)c1` (racemic): the Ratio Ki in the data set filed under Mus musculus [1] is 11300; in the data set listed under Mus musculus [3] it was 882. For the same compound, the outcome in data set [7] was inactive. In addition, the Imax in data set [8] turned out to be 90%. Besides, the figures for the inhibition constant Ki (at Mu-type opioid receptor; in data set [5]; in data set [6]) were 3830 nM, 0.34 nM and 300 nM, respectively. Besides, the outcome (in data set [11]; in the data set with NG108-15 [4]; with NG108-15 [12]) was Active.

Regarding `C=CCN1CC2CCCC(C1)N2C(c1ccc(C(=O)N(CC)CC)cc1)c1cccc(OC)c1` (racemic), the Ratio Ki is 1210 in the data set listed under Mus musculus [1] and 1170 in the data set listed under Mus musculus [3]. The Ki on Mu-type opioid receptor turned out to be 2270 nM; in data set [5], 1.88 nM; in data set [6], 2200 nM. The result with NG108-15 [9] and in the data set with NG108-15 [10] was Active.

As to `C=CCN1C[C@H](C)N([C@H](c2ccc(C(=O)N(CC)CC)cc2)c2cccc(OC)c2)C[C@H]1C` [SNC-80], the result (in the data set on NG108-15 [13]; in data set [7]) was inactive. Besides, the Activity entry with NG108-15 [14] was “tde”; in the data set with NG108-15 [15], “Toxic”; in the data set on NG108-15 [16], “Dose-dependent effect”. Moreover, in data set [11], the outcome was Active.
